Source: patent US9340774B2, “Tumor-initiating cells and methods for using same” (Wyeth LLC, priority 2009, dated 2016)

What was measured:
5T4 = assay: Anti-5T4 immunoblot of sorted cells treated with all-trans retinoic acid; type: cell-based, human; settings: CD24−/lowCD44+ cells; 10 μM; 72 hours; 0.5% FBS medium; FIG. 6B
Experimental: To determine 5T4 expression under conditions of growth and differentiation, cells were harvested at several time points, and protein extracts were subjected to immunoblot analysis. Cells were washed with PBS and lysed in 0.5% v/v NP40 in 25 mM Tris-buffered saline pH 7.4 (TBS). After protein estimation (MICROBCA™ Protein Assay Kit, Pierce of Rockford, Ill., USA), the lysates were mixed with non-reducing Laemmli sample buffer (Biorad of Hercules, Calif., USA) and 10 μg samples were loaded in each well of a non-reducing 4-20% polyacrylamide gradient gel (NOVEX®, available from Invitrogen of Carlsbad, Calif., USA). The samples were run for two to three hours at 125 volts and transferred to a PVDF (polyvinylidene fluoride) membrane by means of a Novex® electrophoresis transfer system. The membrane was blocked overnight with 5% milk in Tris-buffered saline Tween-20 (TBST) with 1% goat serum, probed with anti-5T4 antibody H8 at 1 μg/ml in 5% milk in TBST, washed and probed with HRP conjugated goat anti-mulgG at 1:5,000 dilution. The ECL detection system was used (Amersham of Burlington, Mass., USA).
To further assess 5T4 expression in tumor cell lines, sorted cells were treated with all-trans retinoic acid to induce differentiation and then subjected to immunoblot analysis. […]

[1] = test system: H460T CD24−/lowCD44+ and CD24highCD44+ cells; assay: Differential drug response of sorted H460T populations; type: cell-based, human
From the text: H460 cells were obtained from the American Type Culture Collection (ATCC) in Manassas, Va., United States of America. The H460 cell line was derived from the pleural fluid of a patient with large cell cancer of the lung (Gazdar et al., Science, 1989, 246: 491494). HCC2429 cells were obtained from J. Minna. See Haruki et al., J. Med. Genet., 2005, 42(7):558-64. […] Higher-passage cells are referred to as H460T to distinguish them from the low-passage H460 that were originally obtained from ATCC. All cells were incubated at 37° Celsius with 5.0% carbon dioxide (CO2). H460T cells were cultured in RPMI-1640 (GIBCO®, available from Invitrogen of Carlsbad, Calif., USA). See Moore et al., JAMA, 1967, 199: 519-524, 10% fetal bovine serum (FBS, GIBCO®, available from Invitrogen of Carlsbad, Calif., USA), 2 mM additional glutamine, 100 IU/mipenicillin, 100 μg/ml streptomycin, 1 mM sodium pyruvate, 0.1% sodium bicarbonate, 045% additional glucose, and 10 mM 4-(2-hydroxyethyl)-1-piperazineethanesulfonic acid (HEPES). HCC2429 cells were cultured in RPMI-1640, 10% FBS, 2 mM additional glutamine, 100 IU/ml penicillin, 100 μg/ml streptomycin. Karyotyping and short tandem repeat (STR) analysis of H460T confirmed its H460 origin, however the Y chromosome was absent in H460T cells and present in most H460 cells. […]

60274 xenografts = assay: Tumor regression of NSCLC primary implant xenografts, line 60274; type: in vivo, mice; settings: maximum tolerable dose
Experimental: Nude (for 37622) or nod-scid (for 60274) mice were injected subcutaneously between the shoulder blades with fragments of low-passage primary implants. When the tumors reached the mass of 0.2 to 0.5 g, the tumors were staged to ensure uniformity of the tumor mass between various treatment groups prior to the administration of therapy. Anti-5T4 huH8 antibody and anti-CD33 p67.6 antibody were conjugated to calicheamicin via an amide linker as described (Hamann et al., Bioconug. Chem., 2002, 13: 40-46). The “amide” linker restricts the release of calicheamicin to cells that internalize the antibody-drug conjugate (Hamann et al., Bioconug. Chem., 2002, 13: 40-46). […] Tumors were measured at least once a week and their mass was as volume=0.5×(tumor width^2)(tumor length). Mean tumor volume (±SEM) for each treatment group was calculated and compared to the vehicle-treated group for statistical significance using a one-sided t-test, with the error term for the t-test based on the pooled variance across all treatment groups. Tumor values for each treatment group were recorded up to 120 days after the initiation of treatment or until either tumor-bearing mice died or the tumors grew to 15% of the body weight at which time these mice were euthanized according to institutional regulations.

[2] = test system: H460T CD24−/lowCD44+ and CD24highCD44+ cells; assay: Colony formation (clonogenic) assay on sorted cells; type: cell-based, human; settings: 72 hours drug exposure, 200 cells replated, colonies after 8 days; FIG. 10B
Experimental: To perform a colony formation assay, cells were seeded in 24 well plate at a density of 5,000 cells per well. Twenty-four hours after seeding the cells were exposed to various concentrations of (0.000097, 0.000390, 0.00156, 0.00625, 0.025, 0.1, 0.4 ng calicheamicin equivalents/ml) of anti-5T4 H8-AcBut conjugate, anti-CD22 AcBut conjugate, or calicheamicin alone. Seventy-two hours after the drug exposure, cells were trypsinized, counted and 200 cells were plated in 6 well plates. After 8 days, the colonies were fixed and stained with methylene blue. The number of colonies per well was counted using a Stereoscope.

[3] = test system: H460T CD24−/lowCD44+ and CD24highCD44+ cells; assay: Four-day MTS cell viability assay on sorted cells; type: cell-based, human; settings: 96 hours of drug exposure, FIG. 10A
Experimental: The CD24^−/lowCD44^+ population was more sensitive to an anti-5T4 antibody-drug conjugate than the CD24^highCD44^+ population in an cell viability assay and a colony growth assay. For each assay, antibody-calicheamicin AcBut-linked (AcBut-AcBut-[4-(4-acetylphenoxy) butanoic acid]) conjugates were prepared as described (Hamann et al., Bioconjug. Chem., 2002, 13: 47-58). The effect of anti-5T4 huH8 antibody-drug conjugate or anti-CD22 antibody-drug conjugate on sorted cells was assessed using a cellular viability indicator ((3-(4,5-dimethylthiazol-2-yl)-5([…])-2-(4-sulfophenyl)-2H-tetrazolium (MTS) (Promega of Madison, Wis., USA) to determine the number of surviving cells following exposure to the drug treatment. Cells were sorted 18 hours prior to start of assay. Cells were seeded in 96-well microtiter plates at a density of 10000 cells per well and exposed to various concentrations of the drug. Following determination of the number of viable cells surviving 96 hours of drug exposure, the IC50 of each treatment was calculated based on the logistic regression parameters derived from the dose-response curves. IC50 values were calculated by logistic non-linear regression and are reported as the calicheamicin dimethyl hydrazide (CalichDMH) concentration from each treatment group that causes 50% loss of cell viability.

CC1=C(/C=C/C(C)=C/C=C/C(C)=C/C(=O)O)C(C)(C)CCC1 [all-trans retinoic acid]
5T4 expression (immunoblot) (5T4): dramatically reduced

CC[C@@]1(O)C(=O)OCc2c1cc1n(c2=O)Cc2cc3ccccc3nc2-1 [camptothecin]
response of CD24−/lowCD44+ versus CD24highCD44+ populations [1]: responded equally

O=c1[nH]cc(F)c(=O)[nH]1 [5-fluoruracil]
response of CD24−/lowCD44+ versus CD24highCD44+ populations [1]: responded equally

N.N.[Cl][Pt][Cl] [cisplatin]
tumor size of 60274 xenografts (60274 xenografts; FIG. 12C): reduced tumor size transiently
regrowth of 60274 tumors (60274 xenografts; after completion of the dosing regimen): quickly regrew

calicheamicin
sensitivity of CD24−/lowCD44+ cells versus CD24highCD44+ cells (number of colonies) [2]: No difference between the two populations
sensitivity of CD24−/lowCD44+ cells versus CD24highCD44+ cells (IC50 as CalichDMH concentration) [3]: No difference between the two populations
